According to patent publication US20220401465A1, “USES OF NAD+ AND/OR NAD+ INHIBITORS AND/OR NAD+ AGONISTS AND COMBINATION PREPARATION THEREOF” (ShanghaiTech University, priority 2019, published 2022):

Tests used:
[1] = tested on: K562-CD19-mCherry-luciferase cells; assay: Subcutaneous K562-CD19-mCherry-luciferase solid tumor model in NSG mice, in vivo imaging and survival; settings: NAM alone i.p. daily 100 μL at 1 g/ml in saline, versus saline, n=5
Description: In cells with K562-CD19-mCherry, as described previously, luciferase was then overexpressed through the lentiviral system. […] Since subcutaneously injected K562 cells also overexpressed Luciferase, intracellular fluorescence can be excited after intraperitoneal injection of the substrate luciferin (PerkinElmer 122799) in mice, and tumor growth in mice can be collected by in vivo imaging. Before CAR-T cells were injected into the tail vein of mice, the fluorescence signal intensity of mouse tumor cells was detected as the starting point, and then the fluorescence intensity of mouse tumor cells was detected every 7 days. For detection, the mice were intraperitoneally injected with 150 μL of D-luciferin potassium salt at a concentration of 10 mg/ml, and 10 minutes later, the fluorescence of tumor cells was detected using IVIS® LuminaIII small animal in vivo imaging system. The stronger the fluorescence, the more tumor cells and the faster the tumor growth.

T cells in PBMC [2] = assay: CD69 expression on T cells after anti-CD3/CD28 activation of PBMC (flow cytometry); assay type: cell-based, human
Description: (§1) Human peripheral blood mononuclear cells (PBMC) were diluted 1:1 with fresh blood and normal saline (Meilun Biological MA0083) and then added flat to the upper layer of an equal volume of Histopaque®-1077 (Sigma10771) separation solution. The cells were centrifuged slowly for 30 min at 500 g at room temperature. After centrifugation, the white membrane layer between the plasma and the separation solution was imbibed and washed with normal saline. After repeated washing, the cells were resuspended with 10% FBS (Thermofisher 10099141C) RPMI (Corning10-040-CV) medium for later use.
(§2) The concentration of PBMC cells was adjusted to no more than 0.5 million/ml, and the final concentration of 1 μM FK866 (Selleck S2799), 100 μM NAD+ (Selleck S2518), or 1μM FK866, and 100 μM NAD+ were added respectively. The cells after drug addition were cultured in a cell incubator for 24 hours at 37° C., with 5% CO2.
Highly adsorbed 96-well plates were coated with CD28 (Biolegend 102112), and CD3 (Thermofisher 14-0037-82) antibodies at the final concentration of 0 or 3 μg/ml, the PBMC cells treated with the above different treatments were added to the well plates, respectively. After 24 h stimulation, the cells were collected for CD69 staining. […] After washing with Staining buffer, the cells were resuspended with staining buffer containing DAPI and then detected on BD LSRFortessa. […]

T cells in PBMC [3] = assay: Intracellular tyrosine phosphorylation after anti-CD3/CD28 activation of PBMC (WB, 4G10 antibody); assay type: cell-based, human; settings: 1 μM FK866 24 h, then CD3/CD28 antibody stimulation 5 min, versus solvent
Description: as §1, §2
Highly adsorbed 96-well plates were coated with CD28 (Biolegend 102112), and CD3 (Thermofisher 14-0037-82) antibodies at the final concentration of 0 or 3 μg/ml, the PBMC cells treated with the above different treatments were added to the well plates, respectively. […] WB testing: after cell collection, the cells were lysed to extract proteins, which were then electrophoretically transferred and detected with 4G10 antibody (Millipore16-103) for anti-Phosphotyrosine testing. […]

Structure (SMILES) | effect on the fluorescence intensity and tumor growth of tumor cells [1] | CD69 on the surface of T cells (T cells in PBMC [2]; PBMC, 1 μM FK866 24 h, then CD3/CD28 antibody stimulation 24 h, versus solvent) | T cell activation ability (T cells in PBMC [2]; concluded from CD69 and phosphorylation levels when NAD+ synthesis was inhibited) | intracellular phosphorylation levels (tyrosine) (T cells in PBMC [3])
NC(=O)c1cccnc1 [Nicotinamide (NAM), Nicotinamide] | no significant effect |  |  | 
O=C(/C=C/c1cccnc1)NCCCCC1CCN(C(=O)c2ccccc2)CC1 [FK866] |  | significantly reduced | significantly decreased | significantly reduced
